Measured values from PubChem BioAssay (NCI).
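Five compound concentrations were applied to cells in 96-well plates for 48 hours; endpoints were derived by simple linear interpolation of the resulting dose-response curve. TGI: concentration producing complete growth inhibition.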

The compounds below were run on DU-145 prostate (assay: NCI anticancer screen, dose series, 48 h).

Row | Structure (SMILES) | TGI [µM]
1 | COc1cc(I)c2c3c1OC1C34CCN(C)C(C2)C4=CC(I)C1(OC)OC (centres undefined) | 47.5
2 | NC(=O)C(=CNC(=S)c1ccncc1)C(N)=O | > 100
3 | COC(=O)C1=Nc2c(C)nn(-c3ccccc3)c2N=C(c2ccc([N+](=O)[O-])cc2)C1 | > 10
4 | COC(=O)c1ccc(C=Nc2ccc(S(N)(=O)=O)cc2)cc1 | > 100
5 | CC(C)(C)c1cc(/C=C(\C#N)C(=O)NCCO)cc(C(C)(C)C)c1O | > 100
6 | COC(=O)Cc1c([C@H]2[C@H](CC(=O)OC)c3ccccc3N2C(C)=O)[nH]c2ccccc12 | > 100
7 | COCC1OC(N2C(=O)NC(=O)[C@@H]3C=C4CCCCC4=C[C@@H]32)C(OC)C1OC (some centres undefined) | > 100
8 | CCCCc1ccc(Nc2nc3c(ncn3COCCO)c(=O)[nH]2)cc1 | > 100
9 | O=C(Nc1ccccc1C(=O)NCCCO)/C(=C/c1ccccc1O)NC(=O)c1ccccc1 | > 100
10 | CCOC(=O)/C(C#N)=N\Nc1ccc(-n2c(C)nc3ccccc3c2=O)cc1 | > 100
11 | OC1(c2ccc(Cl)cc2)c2ccc3ccccc3c2C2=N[C@H]3CCCC[C@@H]3N21 (some centres undefined) | 37.2
12 | NC(=O)c1cc2ccccc2o/c1=N/O | > 100
13 | Brc1cccc(N=NN2CCCC2)c1 | > 100
14 | COCc1nc2c(OC)cc(-c3nc4ccc(N5CCN(C)CC5)cc4[nH]3)c(OC)c2[nH]1 | > 100
15 | Brc1ccc2c(-c3csc(-c4c[nH]c5ccc(Br)cc45)n3)c[nH]c2c1 | 15.5
16 | Cc1c2ncccc2cc2oc3ccccc3c(=O)c12 | > 100
17 | Clc1ccc(OCc2nnc(CCCCCCCCc3nnc(COc4ccc(Cl)cc4)n3Nc3ccccc3)n2Nc2ccccc2)cc1 | > 80.9
18 | COc1cc(CN2CCCCC2)cc2cc(C(=O)O)c(=O)oc12 | > 100
19 | Brc1ccc2c(-c3csc(-c4c[nH]c5cc(Br)ccc45)n3)c[nH]c2c1 | 47.3
20 | O=c1c2ccccc2nc(Nc2cccc(Cl)c2)n1/N=C/C=C/c1ccccc1 | > 100
21 | C=CCOCCCCC(C(C)=O)C(=O)OC (centres undefined) | > 100
22 | Cc1nn(-c2cc(Cl)ccc2[N+](=O)[O-])c(C)c1Cl | > 100
23 | Cn1c([O-])nc(-n2cc[n+](C)c2)cc1=O | > 100
24 | CC1(C)C=C(S(=O)(=O)c2ccccc2)Oc2ccccc2O1 | > 100

These compounds were tested on HOP-18 NSCLC (assay: NCI anticancer screen, dose series, 48 h).

Row | Structure (SMILES) | TGI [µM]
25 | CC(C)(C)C1CCC2(CC1)c1[nH]c3ccccc3c1C1(CCC(C(C)(C)C)CC1)c1[nH]c3ccccc3c12 (centres undefined) | > 100
26 | COc1c(Br)cc(CC(N)=O)c(O)c1Br | > 100
27 | CCOC(=O)C1=C(OC(OCC)C(CC)[Se]c2ccccc2)CCCC1 (centres undefined) | 86.4
28 | COC1(OC)CCCCC2c3cccc(OC(C)=O)c3C21OC(C)=O (centres undefined) | > 100
29 | O=C1NC2OC(CO)C(O)C(O1)C2O (centres undefined) | > 100
30 | COC(=O)C1CC2(c3ccccc3)C(=O)c3ccccc3N2O1 (centres undefined) | > 100
31 | O=C(O)C(CO)NC(=O)n1c2ccccc2c2ccccc21 (centres undefined) | > 100
32 | C=CCOCCCCC(C(C)=O)C(=O)OC (centres undefined) | > 100
33 | O=C(CC1=NCCN1)c1ccccc1 | > 750

What follows are compounds tested on SK-MEL-5 melanoma (assay: NCI anticancer screen, dose series, 48 h).

Row | Structure (SMILES) | TGI [µM]
34 | CC(C)(C)C1CCC2(CC1)c1[nH]c3ccccc3c1C1(CCC(C(C)(C)C)CC1)c1[nH]c3ccccc3c12 (centres undefined) | > 100
35 | CC(=O)OC/C=C(/C=C/CNC1CCCCC1)OC(C)=O | 33.5
36 | O=C(N/N=C/c1ccco1)c1cc(I)cc(I)c1O | 34.4
37 | COc1c(Br)cc(CC(N)=O)c(O)c1Br | > 100
38 | O=C(CSc1n[nH]c(=O)[nH]c1=O)NNC(=O)c1cccc2nc3ccccc3nc12 | 45
39 | Nc1ccc(S(=O)(=O)Nc2nc3ccccc3nc2N2CCCCC2)cc1 | > 100
40 | COc1c(C)c2nc3ccccc3[nH]c2c2c(=O)ccnc12 | > 100
41 | CCOc1cc(-c2nc3ccccn3c2/N=C/c2cc(Br)ccc2O)ccc1O | > 100
42 | CC1(CNCc2ccccc2)CC(CCc2ccccc2)N(C(=O)c2ccc([N+](=O)[O-])cc2)C1Cc1ccc(O)cc1 (centres undefined) | 17.3
43 | Cn1c2ccccc2n2c(=O)c3cc([N+](=O)[O-])ccc3c(C#N)c12 | > 100
44 | CCOC(=O)C(CC#Cc1ccc(C#CCC(NC(C)=O)C(=O)OCC)cc1)NC(C)=O (centres undefined) | > 100
45 | O=C1CSC(c2cccs2)N1c1nc2cc3sc(N4C(=O)CSC4c4cccs4)nc3cc2s1 (centres undefined) | > 50
46 | CCOC(=O)C1=C(OC(OCC)C(CC)[Se]c2ccccc2)CCCC1 (centres undefined) | 35.8
47 | NC(N)=NS(=O)(=O)c1ccc(NC(=O)c2ccc3nc4ccccc4c(Nc4ccc(S(=O)(=O)N=C(N)N)cc4)c3c2)cc1 | > 100
48 | Brc1cc2nn(-c3ccccc3)nc2c2nonc12 | > 100
49 | CCOC(=O)C(NC(=O)CC(C)C)(N1CCN(c2cc3c(cc2F)c(=O)c(C(=O)O)cn3C2CC2)CC1)C(F)(F)F (centres undefined) | 25.4
50 | c1ccc(/C(=N/Nc2ccccn2)c2ncccn2)cc1 | 26.9
51 | COc1cc(I)c2c3c1OC1C34CCN(C)C(C2)C4=CC(I)C1(OC)OC (centres undefined) | 34
52 | NC(=O)C(=CNC(=S)c1ccncc1)C(N)=O | > 100
53 | COC(=O)C1=Nc2c(C)nn(-c3ccccc3)c2N=C(c2ccc([N+](=O)[O-])cc2)C1 | > 10
54 | COC(=O)c1ccc(C=Nc2ccc(S(N)(=O)=O)cc2)cc1 | > 100
55 | CC(C)(C)c1cc(/C=C(\C#N)C(=O)NCCO)cc(C(C)(C)C)c1O | 28.1
56 | COC1(OC)CCCCC2c3cccc(OC(C)=O)c3C21OC(C)=O (centres undefined) | > 100

Row | Structure (SMILES) | TGI [µM]
57 | COC(=O)Cc1c([C@H]2[C@H](CC(=O)OC)c3ccccc3N2C(C)=O)[nH]c2ccccc12 | > 100
58 | CCCCc1ccc(Nc2nc3c(ncn3COCCO)c(=O)[nH]2)cc1 | > 100
59 | O=C(Nc1ccccc1C(=O)NCCCO)/C(=C/c1ccccc1O)NC(=O)c1ccccc1 | > 100
60 | CCOC(=O)/C(C#N)=N\Nc1ccc(-n2c(C)nc3ccccc3c2=O)cc1 | 36.6
61 | OC1(c2ccc(Cl)cc2)c2ccc3ccccc3c2C2=N[C@H]3CCCC[C@@H]3N21 (some centres undefined) | > 100
62 | O=C1NC2OC(CO)C(O)C(O1)C2O (centres undefined) | > 100
63 | NC(=O)c1cc2ccccc2o/c1=N/O | > 100
64 | Brc1cccc(N=NN2CCCC2)c1 | > 100
65 | COC(=O)C1CC2(c3ccccc3)C(=O)c3ccccc3N2O1 (centres undefined) | > 100
66 | COCc1nc2c(OC)cc(-c3nc4ccc(N5CCN(C)CC5)cc4[nH]3)c(OC)c2[nH]1 | 53.2
67 | O=C(O)C(CO)NC(=O)n1c2ccccc2c2ccccc21 (centres undefined) | > 100
68 | Brc1ccc2c(-c3csc(-c4c[nH]c5ccc(Br)cc45)n3)c[nH]c2c1 | 12.8
69 | Cc1c2ncccc2cc2oc3ccccc3c(=O)c12 | > 100
70 | O=C(Nc1cccc(O)c1)C(=O)C(C(=O)c1ccccc1F)C1OC(=O)c2ccccc21 (centres undefined) | > 100
71 | Clc1ccc(OCc2nnc(CCCCCCCCc3nnc(COc4ccc(Cl)cc4)n3Nc3ccccc3)n2Nc2ccccc2)cc1 | 2.72
72 | COc1cc(CN2CCCCC2)cc2cc(C(=O)O)c(=O)oc12 | > 100
73 | Brc1ccc2c(-c3csc(-c4c[nH]c5cc(Br)ccc45)n3)c[nH]c2c1 | > 100
74 | O=c1c2ccccc2nc(Nc2cccc(Cl)c2)n1/N=C/C=C/c1ccccc1 | > 100
75 | C=CCOCCCCC(C(C)=O)C(=O)OC (centres undefined) | > 100
76 | Cc1nn(-c2cc(Cl)ccc2[N+](=O)[O-])c(C)c1Cl | > 100
77 | Cn1c([O-])nc(-n2cc[n+](C)c2)cc1=O | > 100
78 | O=C(CC1=NCCN1)c1ccccc1 | > 750
79 | CC1(C)C=C(S(=O)(=O)c2ccccc2)Oc2ccccc2O1 | 28.9

What follows are compounds tested on MDA-N (assay: NCI anticancer screen, dose series, 48 h).

Row | Structure (SMILES) | TGI [µM]
80 | CC(=O)OC/C=C(/C=C/CNC1CCCCC1)OC(C)=O | 31.9
81 | O=C(N/N=C/c1ccco1)c1cc(I)cc(I)c1O | > 50
82 | O=C(CSc1n[nH]c(=O)[nH]c1=O)NNC(=O)c1cccc2nc3ccccc3nc12 | 97.5
83 | Nc1ccc(S(=O)(=O)Nc2nc3ccccc3nc2N2CCCCC2)cc1 | > 100
84 | COc1c(C)c2nc3ccccc3[nH]c2c2c(=O)ccnc12 | > 100
85 | CCOc1cc(-c2nc3ccccn3c2/N=C/c2cc(Br)ccc2O)ccc1O | > 100
86 | CC1(CNCc2ccccc2)CC(CCc2ccccc2)N(C(=O)c2ccc([N+](=O)[O-])cc2)C1Cc1ccc(O)cc1 (centres undefined) | 27.1
87 | Cn1c2ccccc2n2c(=O)c3cc([N+](=O)[O-])ccc3c(C#N)c12 | > 100
88 | CCOC(=O)C(CC#Cc1ccc(C#CCC(NC(C)=O)C(=O)OCC)cc1)NC(C)=O (centres undefined) | > 100
89 | O=C1CSC(c2cccs2)N1c1nc2cc3sc(N4C(=O)CSC4c4cccs4)nc3cc2s1 (centres undefined) | > 50
90 | NC(N)=NS(=O)(=O)c1ccc(NC(=O)c2ccc3nc4ccccc4c(Nc4ccc(S(=O)(=O)N=C(N)N)cc4)c3c2)cc1 | > 100
91 | Brc1cc2nn(-c3ccccc3)nc2c2nonc12 | > 100
92 | CCOC(=O)C(NC(=O)CC(C)C)(N1CCN(c2cc3c(cc2F)c(=O)c(C(=O)O)cn3C2CC2)CC1)C(F)(F)F (centres undefined) | 52.3
93 | c1ccc(/C(=N/Nc2ccccn2)c2ncccn2)cc1 | > 100
94 | COc1cc(I)c2c3c1OC1C34CCN(C)C(C2)C4=CC(I)C1(OC)OC (centres undefined) | 48
95 | NC(=O)C(=CNC(=S)c1ccncc1)C(N)=O | > 100
96 | COC(=O)C1=Nc2c(C)nn(-c3ccccc3)c2N=C(c2ccc([N+](=O)[O-])cc2)C1 | > 10
97 | COC(=O)c1ccc(C=Nc2ccc(S(N)(=O)=O)cc2)cc1 | > 100
98 | CC(C)(C)c1cc(/C=C(\C#N)C(=O)NCCO)cc(C(C)(C)C)c1O | 48.7
99 | COC(=O)Cc1c([C@H]2[C@H](CC(=O)OC)c3ccccc3N2C(C)=O)[nH]c2ccccc12 | > 100
